# Patent publication US10189795B2, “Aryl amine substituted quinoxaline used as anticancer drugs” (priority 2014, dated 2019)
# Assays:
# [1] = test system: NCI-1703; test: cell viability of NCI-1703 cells, 1 and 10 uM of each erlotinib derivative, and IC50; type: cell-based; conditions: Homo sapiens
# Description: [Worded in the source for another cell line; this cell line is reported under the same test.] (§1) Sorafenib (Nexavar), erlotinib (Tarceva) and Paclitaxel were kindly provided by Bayer Pharmaceuticals (Pittsburgh, Pa., USA) and Roche Pharmaceuticals (Basel, Switzerland) respectively. Okadaic acid (OA) was purchased from Cayman Chemical (Ann Arbor, Mich., USA) and z-VAD-fmk was obtained from Sigma (St. Louis, Mo., USA). For in vitro studies, drugs at various concentrations were dissolved in dimethyl sulfoxide (DMSO), and added to cells in Dulbecco's modified Eagle's medium (DMEM) or Roswell Park Memorial Institute (RPMI) containing 5% fetal bovine serum (FBS).
# (§2) The Sk-Hep1, PLC/PRF/5 (PLC) and Hep3B cell lines were obtained from American Type Culture Collection (ATCC; Manassas, Va., USA). The Huh-7 HCC cell line was obtained from the Health Science Research Resources Bank (HSRRB; Osaka, Japan; JCRB0403). Cells were maintained in DMEM supplemented with 10% FBS in a 37° C. humidified incubator in an atmosphere of 5% CO^2 in air.
# [2] = test system: H358; test: cell viability of H358 cells, 1 and 10 uM; type: cell-based; conditions: Homo sapiens, NCI-H358
# Description: [Worded in the source for another cell line; this cell line is reported under the same test.] as §1, §2
# [3] = test system: NCI-H226; test: cell viability of NCI-H226 cells, 1 and 10 uM; type: cell-based; conditions: Homo sapiens
# Description: [Worded in the source for another cell line; this cell line is reported under the same test.] as §1, §2
# [4] = test system: PP2A; test: PP2A phosphatase activity (malachite green-phosphate assay in cell lysate); type: cell-based
# Description: The protein phosphatase activity in each cell lysate was determined by measuring the generation of free phosphate from threonine phosphopeptide using the malachite green-phosphate complex assay as described by the manufacturer (Upstate Biotechnology, Lake Placid, N.Y., USA). In brief, HCC cell lysates were first prepared in a low-detergent lysis buffer. […] After incubation for 10 min at 30° C., the malachite dye was added and free phosphate was measured by optical density at 650 nm. In order to avoid variation resulting from differences in the amount of immunoprecipitation protein between samples, the phosphatase activities were normalized to the amounts of PP2A immunoprecipitated, which were detected and quantified by immunoblot analysis for each treatment group.
# [5] = test system: A549; test: cell viability of A549 cells, 1 and 10 uM; type: cell-based; conditions: Homo sapiens
# Description: [Worded in the source for another cell line; this cell line is reported under the same test.] as §1, §2
# [6] = test system: SW900; test: cell viability of SW900 cells, 1 and 10 uM; type: cell-based; conditions: Homo sapiens
# Description: [Worded in the source for another cell line; this cell line is reported under the same test.] as §1, §2
# [7] = test system: H520; test: cell viability of H520 cells, 1 and 10 uM; type: cell-based; conditions: Homo sapiens, NCI-H520
# Description: [Worded in the source for another cell line; this cell line is reported under the same test.] as §1, §2
# [8] = biological target: T1, SET-PP2Ac binding (Homo sapiens, UniProt Q01105); test: disruption of SET-PP2Ac binding (surface plasmon resonance, co-IP)
# T1 construct: His; purchased Genway (SET-His); Abnova (PP2Ac-GST) GWB-ATG319; H00005515
# Description: Binding affinities of full-length SET and truncated SET to PP2Ac and the effect of the erlotinib derivatives of the present invention on disrupting SET and PP2Ac were analyzed. PP2Ac-GST recombinant protein was bound in the CMS chip pre-coated with GST-capture antibodies. Sensorgrams were generated by injecting several concentrations of the erlotinib derivatives of the present invention mixed with fixed-concentration of SET recombinant protein, or the mixture of different concentration of truncated SET proteins in a fixed-dose EMQA. PP2Ac-GST recombinant protein used for this experiment was purchased from Abnova (H00005515) and SET-His recombinant protein was obtained from Genway (GWB-ATG319).
# EMQA reactivates PP2A by disrupting the binding of SET-PP2Ac. To validate the role of SET, the present invention generated Hep3B cells with ectopic expression of myc-tagged SET by transient transfection. […] With a fixed amount of PP2Ac coated on the CM chip, the present invention tested the effects of a fixed-dose of EMQA on interfering different proportions of full-length and truncated forms of SET proteins in SPR system. […] To validate the findings of this ex vivo system, the present invention generated cells with ectopic overexpression of these two truncated forms of Flag-tagged SET proteins by transient transfections.
# [9] = test system: H2170; test: cell viability of H2170 cells, 1 and 10 uM; type: cell-based; conditions: Homo sapiens, NCI-H2170
# Description: [Worded in the source for another cell line; this cell line is reported under the same test.] as §1, §2
# T1 sequence (Q01105 1-277 isoform Q01105-2): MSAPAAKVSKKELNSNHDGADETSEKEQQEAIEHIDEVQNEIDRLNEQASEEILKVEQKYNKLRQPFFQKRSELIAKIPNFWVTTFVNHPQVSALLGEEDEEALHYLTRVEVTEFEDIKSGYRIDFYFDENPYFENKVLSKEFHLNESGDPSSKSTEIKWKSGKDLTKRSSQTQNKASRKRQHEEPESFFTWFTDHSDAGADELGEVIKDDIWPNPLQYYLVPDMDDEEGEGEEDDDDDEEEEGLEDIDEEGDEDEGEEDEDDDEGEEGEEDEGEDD
SMILES,viability at 1 µM [1] [%],viability at 10 µM [1] [%],IC50 ([1]; cell viability) [µM],viability at 1 µM [2] [%],viability at 10 µM [2] [%],viability at 1 µM [3] [%],viability at 10 µM [3] [%],minimal concentration for PP2A activation [4] [nM],viability at 1 µM [5] [%],viability at 10 µM [5] [%],viability at 1 µM [6] [%],viability at 10 µM [6] [%],viability at 1 µM [7] [%],minimal concentration to disrupt SET-PP2Ac binding [8] [nM],viability at 1 µM [9] [%],viability at 10 µM [9] [%],viability at 10 µM [7] [%]
"Nc1ccc2nc(Nc3ccc(C(F)(F)F)cc3)c(Nc3ccc(C(F)(F)F)cc3)nc2c1 [TD607, N^2,N^3-bis(4-(trifluoromethyl)phenyl)quinoxaline-2,3,6-triamine]",49.7 ± 2.7,13.4 ± 1.6,1.3,116 ± 15.5,12.1 ± 0.3,106 ± 2.6,36.7 ± 2.2,>200,100 ± 5.9,9.5 ± 0.6,85.9 ± 10.4,0.61 ± 5,63.4 ± 53.7,>200,104 ± 14.2,1.34 ± 0.93,
"FC(F)(F)Oc1ccc(Nc2nc3ccccc3nc2Nc2ccc(OC(F)(F)F)cc2)cc1 [TD65, N^2,N^3-bis(4-(trifluoromethoxy)phenyl)quinoxaline-2,3-diamine]",53.2 ± 2.3,26.3 ± 1,,27.1 ± 1.2,18.3 ± 3,46.2 ± 2.5,14.1 ± 1.3,50 to 100,66.4 ± 6.9,27.7 ± 2,0.73 ± 1.32,,18.5 ± 1.23,<100,77.9 ± 3.48,0.26 ± 0.1,0.47 ± 0.06
"FS(F)(F)(F)(F)c1ccc(Nc2nc3ccccc3nc2Nc2ccc(S(F)(F)(F)(F)F)cc2)cc1 [TD68, N^2,N^3-bis(4-(Pentafluorothio)phenyl)quinoxaline-2,3-diamine]",48.6 ± 2,33.3 ± 7.1,,22.4 ± 1.8,16.7 ± 0.8,40.2 ± 0.3,14.8 ± 0.3,<50,57.3 ± 19.1,32.9 ± 4,3.38 ± 4.64,0.57 ± 0.22,10.1 ± 0.85,50,69.39 ± 0.67,0.17 ± 0.16,0.47 ± 0.11
"FC(F)(F)Oc1ccc(Nc2nc3ccccc3nc2Cl)cc1 [TD80, 3-chloro-N-(4-(trifluoromethoxy)phenyl)quinoxalin-2-amine]",106 ± 5.2,52.3 ± 2.4,,119 ± 3.7,89.4 ± 11.9,103 ± 10.7,87.8 ± 9.3,>200,110 ± 6,83.4 ± 16.4,99.8 ± 11.8,88 ± 13.4,104 ± 1.3,>200,91.6 ± 5.42,87.56 ± 0.78,92.2 ± 4.42
"O=[N+]([O-])c1ccc2nc(Nc3cccc(Br)c3)c(Nc3cccc(Br)c3)nc2c1 [TD618, N^2,N^3-bis(3-bromophenyl)-6-nitroquinoxaline-2,3-diamine]",48.3 ± 4.8,31.9 ± 5,,36.6 ± 1.6,20.4 ± 3.5,49.6 ± 9.4,16.7 ± 1.1,>200,53.2 ± 6.3,26.9 ± 7,,,,>200,,,
"Clc1cc(Cl)cc(Nc2nc3ccccc3nc2Cl)c1 [TD78, 3-chloro-N-(3,5-dichlorophenyl)quinoxalin-2-amine]",70.6 ± 8.2,73.2 ± 14.1,,98.7 ± 4.6,90.8 ± 7.4,118 ± 2.2,111 ± 12.9,>200,77.6 ± 5.8,94.7 ± 11.3,102 ± 6.69,84.1 ± 1.12,108.5 ± 0.14,100 to 200,111 ± 1.69,93.09 ± 0.66,108 ± 2.23
